From patent US20130236481A1, “HETEROCYCLE -ARYL COMPOUNDS FOR INFLAMMATION AND IMMUNE-RELATED USES” (SYNTA PHARMACEUTICALS CORP., priority 2007, published 2013)
Structures can show the parent of a compound that is named as a salt.

System: IL-2 production
Assay: Inhibition of IL-2 production in PHA-activated Jurkat cells (ELISA)
Assay type: cell-based
Settings: PHA 2.5 μg/mL, IL-2 ELISA
Description: Jurkat cells were placed in a 96 well plate (0.5 million cells per well in 1% FBS medium) then a test compound of this invention was added at different concentrations. After 10 minutes, the cells were activated with PHA (final concentration 2.5 μg/mL) and incubated for 20 hours at 37° C. under CO2. The final volume was 200 μL. Following incubation, the cells were centrifuged and the supernatants collected and stored at −70° C. prior to assaying for IL-2 production. A commercial ELISA kit (IL-2 Eli-pair, Diaclone Research, Besancon, France) was used to detect production of IL-2, from which dose response curves were obtained. The IC50 value was calculated as the concentration at which 50% of maximum IL-2 production after stimulation was inhibited versus a non-stimulation control.

Compound | IC50 (Homo sapiens, Jurkat, 20 h) [nM] | IC50 (20 hours, hydrochloride) [nM]
COc1ncc(Cl)cc1-c1cc(-c2ccc(NC(=O)c3c(F)cccc3F)cc2)c(C)s1 [Compound 13, N-(4-(5-(5-chloro-2-methoxypyridin-3-yl)-2-methylthiophen-3-yl)phenyl)-2,6-difluorobenzamide] | 73 | –
Cc1sc(-c2nccs2)cc1-c1cnc(NC(=O)c2c(F)cccc2F)cn1 [Compound 15, 2,6-difluoro-N-(5-(2-methyl-5-(thiazol-2-yl)thiophen-3-yl)pyrazin-2-yl)benzamide] | 10 | –
Cc1ccncc1-c1cc(-c2ccc(NC(=O)c3c(F)cccc3F)cc2)c(C)s1 [Compound 12, 2,6-difluoro-N-(4-(2-methyl-5-(4-methylpyridin-3-yl)thiophen-3-yl)phenyl)benzamide] | 9 | –
Cc1sc(-c2nccs2)cc1-c1ccc(NC(=O)c2c(F)cccc2F)cc1 [Compound 8, 2,6-difluoro-N-(4-(2-methyl-5-(thiazol-2-yl)thiophen-3-yl)phenyl)benzamide] | 6 | –
Cc1sc(-c2cnco2)cc1-c1cnc(NC(=O)c2c(F)cccc2F)cn1 [Compound 4, 2,6-difluoro-N-(5-(2-methyl-5-(oxazol-5-yl)thiophen-3-yl)pyrazin-2-yl)benzamide] | 15 | –
Cc1sc(-c2nnco2)cc1-c1ccc(NC(=O)c2c(F)cccc2F)cc1 [Compound 9, 2,6-difluoro-N-(4-(2-methyl-5-(1,3,4-oxadiazol-2-yl)thiophen-3-yl)phenyl)benzamide] | 9 | –
Cc1cc(-c2cncn2C)sc1-c1ccc(NC(=O)c2c(F)cccc2F)cc1 [Compound 3, 2,6-difluoro-N-(4-(3-methyl-5-(1-methyl-1H-imidazol-5-yl)thiophen-2-yl)phenyl)benzamide] | 8 | –
Cc1sc(-c2cnc[nH]2)cc1-c1ccc(NC(=O)c2c(F)cccc2F)nc1 [Compound 16, N-(5-(5-(1H-imidazol-5-yl)-2-methylthiophen-3-yl)pyridin-2-yl)-2,6-difluorobenzamide] | 50 | –
Cc1cc(-c2cccnc2)sc1-c1ccc(NC(=O)c2c(F)cccc2F)cc1 [Compound 6, 2,6-difluoro-N-(4-(3-methyl-5-(pyridin-3-yl)thiophen-2-yl)phenyl)benzamide] | 2 | –
Cc1sc(-c2cnc[nH]2)cc1-c1ccc(NC(=O)c2c(F)cccc2F)cc1 [Compound 11, N-(4-(5-(1H-imidazol-5-yl)-2-methylthiophen-3-yl)phenyl)-2,6-difluorobenzamide] | 16 | –
Cc1cc(-c2ccno2)sc1-c1ccc(NC(=O)c2c(F)cccc2F)cc1 [Compound 1, 2,6-difluoro-N-(4-(5-(isoxazol-5-yl)-3-methylthiophen-2-yl)phenyl)benzamide] | 3 | –
Cc1sc(-c2cnco2)cc1-c1ccc(NC(=O)c2c(F)cccc2F)nc1 [Compound 5, 2,6-difluoro-N-(5-(2-methyl-5-(oxazol-5-yl)thiophen-3-yl)pyridin-2-yl)benzamide] | 10 | –
Cc1sc(-c2nccs2)cc1-c1ccc(NC(=O)c2c(F)cccc2F)nc1 [Compound 14, 2,6-difluoro-N-(5-(2-methyl-5-(thiazol-2-yl)thiophen-3-yl)pyridin-2-yl)benzamide] | 8 | –
Cc1sc(-c2cccnc2)cc1-c1ccc(NC(=O)c2c(F)cccc2F)cc1 [Compound 7, 2,6-difluoro-N-(4-(2-methyl-5-(pyridin-3-yl)thiophen-3-yl)phenyl)benzamide] | 3 | –
Cc1cc(-c2nccs2)sc1-c1ccc(NC(=O)c2c(F)cccc2F)cc1 [Compound 2, 2,6-difluoro-N-(4-(3-methyl-5-(thiazol-2-yl)thiophen-2-yl)phenyl)benzamide] | 7 | –
Cc1sc(-c2cnco2)cc1-c1ccc(NC(=O)c2c(F)cccc2F)cn1 [Compound 10, 2,6-difluoro-N-(6-(2-methyl-5-(oxazol-5-yl)thiophen-3-yl)pyridin-3-yl)benzamide] | 31 | –

Second part, the compound after the results:

IC50 (Homo sapiens, Jurkat, 20 h) [nM] | IC50 (20 hours, hydrochloride) [nM] | Compound
27 | – | Cc1sc(-c2cncn2C)cc1-c1cnc(NC(=O)c2c(F)cccc2F)cn1 [Compound 21, 2,6-difluoro-N-(5-(2-methyl-5-(1-methyl-1H-imidazol-5-yl)thiophen-3-yl)pyrazin-2-yl)benzamide]
17 | – | Cc1cnccc1C(=O)Nc1ccc(-c2cc(-c3cnco3)sc2C)cn1 [Compound 18, 3-methyl-N-(5-(2-methyl-5-(oxazol-5-yl)thiophen-3-yl)pyridin-2-yl)isonicotinamide]
25 | – | Cc1sc(-c2cncn2C)cc1-c1ccc(NC(=O)c2c(F)cccc2F)nc1 [Compound 17, 2,6-difluoro-N-(5-(2-methyl-5-(1-methyl-1H-imidazol-5-yl)thiophen-3-yl)pyridin-2-yl)benzamide]
27 | – | CCn1cncc1-c1cc(-c2ccc(NC(=O)c3c(F)cccc3F)cc2)c(C)s1 [Compound 25, N-(4-(5-(1-ethyl-1H-imidazol-5-yl)-2-methylthiophen-3-yl)phenyl)-2,6-difluorobenzamide]
– | 3 | Cc1sc(-c2cncn2C)cc1-c1ccc(NC(=O)c2c(F)cccc2F)cc1 [Compound 24, 2,6-difluoro-N-(4-(2-methyl-5-(1-methyl-1H-imidazol-5-yl)thiophen-3-yl)phenyl)benzamide hydrochloride]
19 | – | COc1ccncc1-c1cc(-c2ccc(NC(=O)c3c(F)cccc3F)cc2)c(C)s1 [Compound 20, 2,6-difluoro-N-(4-(5-(4-methoxypyridin-3-yl)-2-methylthiophen-3-yl)phenyl)benzamide]
6 | – | Cc1sc(-c2cncn2C)cc1-c1ccc(NC(=O)c2c(F)cccc2F)cc1 [Compound 23, 2,6-difluoro-N-(4-(2-methyl-5-(1-methyl-1H-imidazol-5-yl)thiophen-3-yl)phenyl)benzamide]
3 | – | Cc1sc(-c2cnccc2Cl)cc1-c1ccc(NC(=O)c2c(F)cccc2F)cc1 [Compound 19, N-(4-(5-(4-chloropyridin-3-yl)-2-methylthiophen-3-yl)phenyl)-2,6-difluorobenzamide]
152 | – | Cc1sc(-c2cnc[nH]2)cc1-c1cnc(NC(=O)c2c(F)cccc2F)cn1 [Compound 22, N-(5-(5-(1H-imidazol-5-yl)-2-methylthiophen-3-yl)pyrazin-2-yl)-2,6-difluorobenzamide]
